Source: patent US20110306597A1, “Nicotinamide Derivatives” (priority 2008, published 2011)

Molecular target: human recombinant H-PGDS (Homo sapiens, UniProt O60760)
Experiment: Fluorescence Intensity h-PGDS TBA Enzyme Assay
Assay type: biochemical
Settings: 1:175,000 human recombinant H-PGDS, highest inhibitor concentration typically 1 μM
In short: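 Readout is PGH2 depletion: after a 42 s reaction with 5.0 μM PGH2 and 2.5 mM glutathione (pH 8.0 Tris, 10 min inhibitor preincubation), Fe(II) converts leftover PGH2 to MDA, which forms a fluorescent TBA complex. IC50s come from 11-point, 3-fold duplicate curves, 4-parameter fit.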

Sequence of human recombinant H-PGDS (O60760 whole entry): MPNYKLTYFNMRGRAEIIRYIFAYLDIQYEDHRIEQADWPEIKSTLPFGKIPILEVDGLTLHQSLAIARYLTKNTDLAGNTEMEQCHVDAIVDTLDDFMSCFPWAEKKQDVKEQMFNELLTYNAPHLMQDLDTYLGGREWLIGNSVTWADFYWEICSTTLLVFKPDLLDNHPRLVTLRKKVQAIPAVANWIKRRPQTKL

Compound	IC50 [nM]
COC(=O)[C@H](C)NC(=O)c1ccc(-c2cccc(OC)c2)nc1 [Example 340, Methyl N-{[6-(3-methoxyphenyl)pyridin-3-yl]carbonyl}alaninate]	≥ 1000
COc1cccc(-c2ccc(C(=O)NCc3ccccc3)cn2)c1 [Example 341, N-Benzyl-6-(3-methoxyphenyl)nicotinamide]	131
COc1cccc(-c2ccc(C(=O)NCC(C)(C)CN(C)C)cn2)c1 [Example 342, N-[3-(Dimethylamino)-2,2-dimethylpropyl]-6-(3-methoxyphenyl)nicotinamide]	≥ 1000
COc1cccc(-c2ccc(C(=O)NCC(=O)N(C)C)cn2)c1 [Example 343, N-[2-(Dimethylamino)-2-oxoethyl]-6-(3-methoxyphenyl)nicotinamide]	975
COC(=O)c1ccc(CNC(=O)c2ccc(-c3cccc(OC)c3)nc2)cc1 [Example 344, Methyl 4-[({[6-(3-methoxyphenyl)pyridin-3-yl]carbonyl}amino)methyl] benzoate]	159
COc1cccc(-c2ccc(C(=O)NCCc3ccncc3)cn2)c1 [Example 345, 6-(3-Methoxyphenyl)-N-(2-pyridin-4-ylethyl)nicotinamide]	308
O=C(NCc1cccc(F)c1)c1ccc(-c2ccccc2)nc1 [Example 346, N-(3-Fluorobenzyl)-6-phenylnicotinamide]	4.07
O=C(NCc1ccccc1)c1ccc(-c2ccccc2)nc1 [Example 347, N-Benzyl-6-phenylnicotinamide]	4.3
COC(=O)CNC(=O)[C@H](C)NC(=O)c1ccc(-c2ccccc2)nc1 [Example 348, Methyl N-[(6-phenylpyridin-3-yl)carbonyl]-L-alanylglycinate]	24.6
COC(=O)[C@H](C)NC(=O)c1ccc(-c2ccccc2)nc1 [Example 349, Methyl N-[(6-phenylpyridin-3-yl)carbonyl]alaninate]	47
O=C(NCCCN1CCCC1=O)c1ccc(-c2ccccc2)nc1 [Example 350, N-[3-(2-Oxopyrrolidin-1-yl)propyl]-6-phenylnicotinamide]	6.8
O=C(NCCN1CCCC1=O)c1ccc(-c2ccccc2)nc1 [Example 351, N-[2-(2-Oxopyrrolidin-1-yl)ethyl]-6-phenylnicotinamide]	25.4
CN(C)CC(C)(C)CNC(=O)c1ccc(-c2ccccc2)nc1 [Example 352, N-[3-(Dimethylamino)-2,2-dimethylpropyl]-6-phenylnicotinamide]	458
CC(C)(CNC(=O)c1ccc(-c2ccccc2)nc1)N1CCOCC1 [Example 353, N-(2-Methyl-2-morpholin-4-ylpropyl)-6-phenylnicotinamide]	25.3
O=C(Nc1cccnc1)c1ccc(-c2ccccc2)nc1 [Example 354, 6-Phenyl-N-pyridin-3-ylnicotinamide]	1.66
CCOC(=O)C(CNC(=O)c1ccc(-c2ccccc2)nc1)c1c(F)cccc1F (stereo not drawn) [Example 355, Ethyl 2-(2,6-difluorophenyl)-3-{[(6-phenylpyridin-3-yl)carbonyl]amino}propanoate]	138
O=C(NCCc1ccncc1)c1ccc(-c2ccccc2)nc1 [Example 356, 6-Phenyl-N-(2-pyridin-4-ylethyl)nicotinamide]	11.6
O=C(NCc1cc(F)cc2c1OCOC2)c1ccc(-c2ccccc2)nc1 [Example 357, N-[(6-Fluoro-4H-1,3-benzodioxin-8-yl)methyl]-6-phenylnicotinamide]	1.73
O=C(NCCN1CCCC1)c1ccc(-c2ccccc2)nc1 [Example 358, 6-Phenyl-N-(2-pyrrolidin-1-ylethyl)nicotinamide]	199
O=C(NCCN1CCOC1=O)c1ccc(-c2ccccc2)nc1 [Example 359, N-[2-(2-Oxo-1,3-oxazolidin-3-yl)ethyl]-6-phenylnicotinamide]	37.1
O=C(NCCC1CCC(=O)N1CCN1CCNC1=O)c1ccc(-c2ccccc2)nc1 (stereo not drawn) [Example 360, N-(2-{5-Oxo-1-[2-(2-oxoimidazolidin-1-yl)ethyl]pyrrolidin-2-yl}ethyl)-6-phenylnicotinamide]	10.3
O=C(NCCN1CCCCC1)c1ccc(-c2ccccc2)nc1 [Example 361, 6-Phenyl-N-(2-piperidin-1-ylethyl)nicotinamide]	11.8
CCOC(=O)CC(NC(=O)c1ccc(-c2ccccc2)nc1)c1ccc(OC)cc1 (stereo not drawn) [Example 362, Ethyl 3-(4-methoxyphenyl)-3-{[(6-phenylpyridin-3-yl)carbonyl]amino}propanoate]	12
O=C(NCCc1cccs1)c1ccc(-c2ccccc2)nc1 [Example 363, 6-Phenyl-N-[2-(2-thienyl)ethyl]nicotinamide]	5.1
NC(CC(=O)NC(=O)c1ccc(-c2ccccc2)nc1)C1CC1 (stereo not drawn) [Example 364, N-(3-Amino-3-cyclopropylpropanoyl)-6-phenylnicotinamide]	39.3
Cc1ccc(CNC(=O)c2ccc(-c3ccccc3)nc2)cc1 [Example 365, N-(4-Methylbenzyl)-6-phenylnicotinamide]	4.2

Compound	IC50 [nM]
O=C(NC1CCOCC1)c1ccc(-c2ccccc2)nc1 [Example 366, 6-Phenyl-N-(tetrahydro-2H-pyran-4-yl)nicotinamide]	7.5
O=C(CNC(=O)c1ccc(-c2ccccc2)nc1)OCc1ccccc1 [Example 367, Benzyl N-[(6-phenylpyridin-3-yl)carbonyl]glycinate]	6.6
CCCCNC(=O)c1ccc(-c2ccccc2)nc1 [Example 368, N-Butyl-6-phenylnicotinamide]	16.6
COC(=O)[C@H](Cc1ccc(Cl)cc1)NC(=O)c1ccc(-c2ccccc2)nc1 [Example 369, Methyl 4-chloro-N-[(6-phenylpyridin-3-yl)carbonyl]phenylalaninate]	9.3
COC(=O)CC(NC(=O)c1ccc(-c2ccccc2)nc1)c1cccnc1 (stereo not drawn) [Example 370, Methyl 3-{[(6-phenylpyridin-3-yl)carbonyl]amino}-3-pyridin-3-ylpropanoate]	32.9
CCC1CCN(CCNC(=O)c2ccc(-c3ccccc3)nc2)CC1 [Example 371, N-[2-(4-Ethylpiperidin-1-yl)ethyl]-6-phenylnicotinamide]	20.1
CCOC(=O)C1(NC(=O)c2ccc(-c3ccccc3)nc2)CCOCC1 [Example 372, Ethyl 4-{[(6-phenylpyridin-3-yl)carbonyl]amino}tetrahydro-2H-pyran-4-carboxylate]	249
O=C(NCCN1CCCCC1=O)c1ccc(-c2ccccc2)nc1 [Example 373, N-[2-(2-Oxopiperidin-1-yl)ethyl]-6-phenylnicotinamide]	39.7
CN(C)C(=O)CNC(=O)c1ccc(-c2ccccc2)nc1 [Example 374, N-[2-(Dimethylamino)-2-oxoethyl]-6-phenylnicotinamide]	92.1
O=C(NCCN1CCNC1=O)c1ccc(-c2ccccc2)nc1 [Example 375, N-[2-(2-Oxoimidazolidin-1-yl)ethyl]-6-phenylnicotinamide]	25.5
N#CC(NC(=O)c1ccc(-c2ccccc2)nc1)C(=O)NCCN1CCOCC1 (stereo not drawn) [Example 376, N-{1-Cyano-2-[(2-morpholin-4-ylethyl)amino]-2-oxoethyl}-6-phenylnicotinamide]	55.2
O=C(NC1CCN(Cc2ccc(Cl)cc2)C1=O)c1ccc(-c2ccccc2)nc1 (stereo not drawn) [Example 377, N-[1-(4-Chlorobenzyl)-2-oxopyrrolidin-3-yl]-6-phenylnicotinamide]	11.2
CC(C)CNC(=O)c1ccc(-c2ccccc2)nc1 [Example 378, N-Isobutyl-6-phenylnicotinamide]	21
O=C(NCc1ccco1)c1ccc(-c2ccccc2)nc1 [Example 379, N-(2-Furylmethyl)-6-phenylnicotinamide]	4.79
O=C(NCc1ccccc1F)c1ccc(-c2ccccc2)nc1 [Example 380, N-(2-Fluorobenzyl)-6-phenylnicotinamide]	2.1
CCCCCNC(=O)c1ccc(-c2ccccc2)nc1 [Example 381, N-Pentyl-6-phenylnicotinamide]	7.5
O=C(NCCN1CCN(Cc2ccccc2)CC1)c1ccc(-c2ccccc2)nc1 [Example 382, N-[2-(4-Benzylpiperazin-1-yl)ethyl]-6-phenylnicotinamide]	9.1
O=C(NC1CCN(Cc2ccc(Cl)c(Cl)c2)C1=O)c1ccc(-c2ccccc2)nc1 (stereo not drawn) [Example 383, N-[1-(3,4-Dichlorobenzyl)-2-oxopyrrolidin-3-yl]-6-phenylnicotinamide]	16.5
CCOC(=O)CC(NC(=O)c1ccc(-c2ccccc2)nc1)c1ccccc1Cl (stereo not drawn) [Example 384, ethyl 3-(2-Chlorophenyl)-3-{[(6-phenylpyridin-3-yl)carbonyl]amino}propanoate]	39.6
O=C(NCc1ccc(C(F)(F)F)cc1)c1ccc(-c2ccccc2)nc1 [Example 385, 6-Phenyl-N-[4-(trifluoromethyl)benzyl] nicotinamide]	42.7
CCOC(=O)CCCNC(=O)c1ccc(-c2ccccc2)nc1 [Example 386, Ethyl 4-{[(6-phenylpyridin-3-yl)carbonyl]amino}butanoate]	23.2
CC(=O)N1CCC(CNC(=O)c2ccc(-c3ccccc3)nc2)CC1 [Example 387, N-[(1-Acetylpiperidin-4-yl)methyl]-6-phenylnicotinamide]	20.9
CN1CCC(CCNC(=O)c2ccc(-c3ccccc3)nc2)CC1 [Example 388, N-[2-(1-Methylpiperidin-4-yl)ethyl]-6-phenylnicotinamide]	15.7
O=C(NCCN1CCOCC1)c1ccc(-c2ccccc2)nc1 [Example 389, N-(2-Morpholin-4-ylethyl)-6-phenylnicotinamide]	23.9
CC(O)CNC(=O)c1ccc(-c2ccccc2)nc1 (stereo not drawn) [Example 390, N-(2-Hydroxypropyl)-6-phenylnicotinamide]	13
